For ten molecules, IC50 results are on record in patent US9340537B2, “Benzamide derivatives for inhibiting the activity of ABL1, ABL2 and BCR-ABL1” (NOVATIS AG, priority 2012, dated 2016).

SMILES strings stand for the structures. Read-outs that look alike come from different tables or passages of the source.

One assay has as its system Ba/F3-BCR-ABL1-WT cells. Description: Proliferation assay Ba/F3-BCR-ABL1-WT cells. In kind it is cell-based, murine. The settings on record: Mus musculus.
The target of assay [1] is T1, ABL1 (64-515) (Homo sapiens (Human), UniProt P00519). Description: Radio ABL1 (64-515) radiometric filter-binding kinase assay. In kind it is biochemical. The settings on record: 20 μM ATP.
Procedure: Pre-incubation of enzyme with compounds (when stated) was performed by exposing the enzyme to compounds prior to addition of the substrate mixture (ATP and/or peptide substrate). […] Filter-plates were washed 3× with 0.5% H3PO4, followed by addition of 30 μL scintillation cocktail (Microscint, Perkin Elmer) per well and then analysed in a TopCount NXT scintillation counter (Perkin Elmer). Results were expressed as IC50 values.
The target of assay [2] is T1, ABL1 (64-515). Description: Caliper ABL1 (64-515) microfluidic mobility shift kinase assay. The settings on record: read-out: Caliper ABL1 (64-515) IC50.
Assay [3] has as its system Ba/F3-BCR-ABL1-T315I cells. Description: Proliferation assay Ba/F3-BCR-ABL1-T315I cells. In kind it is cell-based, murine. The settings on record: Mus musculus.
Source text: (§1) The murine bone marrow-derived cell line Ba/F3 was used to generate the appropriate cell line models. […] These cells are referred to as Ba/F3-WT.
(§2) To generate Ba/F3 cells that depend on BCR-ABL1 expression for growth and survival, Ba/F3 cells were engineered to express BCR-ABL1 using retroviral transduction with a MSCV based retroviral vector containing a p210 BCR-ABL1expression cassette. […] These cells are referred to as Ba/F3-BCR-ABL-WT. […] These cells are referred to as Ba/F3-BCR-ABL-T315I.
(§3) Ba/F3-WT cells were maintained in RPMI1640 media with L-glutamine, HEPES (Lonza), 10% FBS (Gibco) and 5 ng/ml IL-3 (Calbiochem). Ba/F3-BCR-ABL1-WT cells and Ba/F3-BCR-ABL1-T315I cells were maintained in RPMI1640 media with L-glutamine, HEPES (Lonza) and 10% FBS (Gibco).
(§4) For each cell line, the cell density was adjusted to 50 000 cells/mL and 50 μL (2500 cells) added per well of a 384-well assay plate.
(§5) Test compounds were resuspended in DMSO at a concentration of 10 mM. A serial three-fold dilution of each compound with DMSO was performed in 384-well plates using the Janus Liquid Dispenser (PerkinElmer). Compound was delivered to the assay plates containing 2500 cells in a 50 μL volume via Acoustic delivery from an ATS-100 (EDC).
(§6) Cells were incubated at 37° C. in a humidified environment with 5% carbon dioxide for 48 hours. Britelite plus solution (Perkin Elmer) was prepared according to the manufacturer's instructions and 25 μL added to each well of the assay plate. […] The degree of luminescence correlates with the number of cells in each well. The effect of each inhibitor concentration can therefore be calculated and IC50 values generated.
Setting [4] is: 48 hours, Britelite luminescence, read-out: Ba/F3-BCR-ABL1-WT IC50.
[5] abbreviates: 48 hours, Britelite luminescence, read-out: Ba/F3-BCR-ABL1-T315I IC50.

T1 sequence (P00519 64-515): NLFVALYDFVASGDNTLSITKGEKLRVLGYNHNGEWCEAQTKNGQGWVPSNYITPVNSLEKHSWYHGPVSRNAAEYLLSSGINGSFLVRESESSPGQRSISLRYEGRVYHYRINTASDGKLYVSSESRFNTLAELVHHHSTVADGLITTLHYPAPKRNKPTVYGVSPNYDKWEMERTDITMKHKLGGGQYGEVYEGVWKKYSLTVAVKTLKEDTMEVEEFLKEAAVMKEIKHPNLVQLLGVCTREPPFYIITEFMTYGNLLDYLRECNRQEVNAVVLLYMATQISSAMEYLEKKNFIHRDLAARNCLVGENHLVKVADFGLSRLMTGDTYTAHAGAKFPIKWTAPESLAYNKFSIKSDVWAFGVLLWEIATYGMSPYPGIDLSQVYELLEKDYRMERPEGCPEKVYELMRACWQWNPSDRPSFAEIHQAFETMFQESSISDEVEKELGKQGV
Source text for Ba/F3-BCR-ABL1-WT cells: as §1, §2, §3, §4, §5, §6

Consider `O=C(Nc1ccc(OC(F)(F)Cl)cc1)c1cnc(N2C[C@H](O)[C@@H](F)C2)c(-c2ccn[nH]2)c1` (relative stereo) [Example 75, N-(4-(Chlorodifluoromethoxy)phenyl)-6-(trans-3-fluoro-4-hydroxypyrrolidin-1-yl)-5-(1H-pyrazol-5-yl)nicotinamide], for which the IC50 was found to be 0.0012 µM in the assay with Ba/F3-BCR-ABL1-WT cells (setting [4]), 3 nM on ABL1 (64-515) [1], 0.5 nM at ABL1 (64-515) [2] and 0.017 µM in assay [3] (setting [5]).

On to `O=C(Nc1ccc(OC(F)(F)F)cc1)c1cnc(N2CC[C@@H](O)C2)c(-c2ccoc2)c1` [Example 7, (R)-5-(Furan-3-yl)-6-(3-hydroxypyrrolidin-1-yl)-N-(4-(trifluoromethoxy)phenyl)nicotinamide], for which the IC50 is 0.0059 µM in the assay on Ba/F3-BCR-ABL1-WT cells (setting [4]), < 3 nM on ABL1 (64-515) [1] and 0.674 µM in assay [3] (setting [5]).

With `C[C@@]1(O)CCN(c2ncc(C(=O)Nc3ccc(OC(F)(F)F)cc3)cc2-c2ccn[nH]2)C1` [Example 14, (R)-6-(3-Hydroxy-3-methylpyrrolidin-1-yl)-5-(1H-pyrazol-5-yl)-N-(4-(trifluoromethoxy)phenyl)nicotinamide], the IC50 was 0.0048 µM in the assay with Ba/F3-BCR-ABL1-WT cells (48 h, read-out: Ba/F3-BCR-ABL1-WT IC50 [μM]) and 0.134 µM in assay [3] (48 h, read-out: Ba/F3-BCR-ABL1-T315I IC50 [μM]).

With `O=C(Nc1ccc(OC(F)(F)F)cc1)c1cnc(N2CC[C@@H](O)C2)c(-c2ncc[nH]2)c1` [Example 70, (R)-6-(3-Hydroxypyrrolidin-1-yl)-5-(1H-imidazol-2-yl)-N-(4-(trifluoromethoxy)phenyl)nicotinamide], the figures for the IC50 (with Ba/F3-BCR-ABL1-WT cells (setting [4]); at ABL1 (64-515) [2]; in assay [3] (setting [5])) were 0.0058 µM, 6.4 nM and 0.106 µM, respectively.

For `O=C(Nc1ccc(OC(F)(F)Cl)cc1)c1cnc(N2CC[C@@H](O)C2)c(-c2ncc[nH]2)c1` [Example 71, (R)—N-(4-(Chlorodifluoromethoxy)phenyl)-6-(3-hydroxypyrrolidin-1-yl)-5-(1H-imidazol-2-yl)nicotinamide], the IC50 came to 0.0011 µM in the assay on Ba/F3-BCR-ABL1-WT cells (setting [4]), 0.4 nM on ABL1 (64-515) [2] and 0.008 µM in assay [3] (setting [5]).

As to `Cc1cnc(-c2cc(C(=O)Nc3ccc(OC(F)(F)F)cc3)cnc2N2CC[C@@H](O)C2)[nH]1` [Example 72, (R)-6-(3-Hydroxypyrrolidin-1-yl)-5-(5-methyl-1H-imidazol-2-yl)-N-(4-(trifluoromethoxy)phenyl)nicotinamide], the IC50 stood at 0.0045 µM with Ba/F3-BCR-ABL1-WT cells (setting [4]), 4.2 nM on ABL1 (64-515) [2] and 0.074 µM in assay [3] (setting [5]).

Turning to `CN(C)C(=O)c1ccc(-c2cc(C(=O)Nc3ccc(OC(F)(F)Cl)cc3)cnc2N2CC[C@@H](O)C2)[nH]1` [Example 73, (R)—N-(4-(Chlorodifluoromethoxy)phenyl)-5-(5-(dimethylcarbamoyl)-1H-pyrrol-2-yl)-6-(3-hydroxypyrrolidin-1-yl)nicotinamide], the results for the IC50 (in the assay with Ba/F3-BCR-ABL1-WT cells (setting [4]); on ABL1 (64-515) [2]; in assay [3] (setting [5])) were 0.0004 µM, 1.1 nM and 0.007 µM, respectively.

Regarding `O=C(Nc1ccc(OC(F)(F)Cl)cc1)c1ccc(N2C[C@H](O)[C@@H](O)C2)c(-c2ccn[nH]2)c1` [Example 77, N-(4-(Chlorodifluoromethoxy)phenyl)-4-((3S,4S)-3,4-dihydroxypyrrolidin-1-yl)-3-(1H-pyrazol-5-yl)benzamide], the IC50 was found to be 0.0041 µM in the assay with Ba/F3-BCR-ABL1-WT cells (setting [4]), 0.7 nM on ABL1 (64-515) [2] and 0.075 µM in assay [3] (setting [5]).

As for `O=C(Nc1ccc(OC(F)(F)Cl)cc1)c1cnc(N2CCC[C@H](O)C2)c(-c2ccn[nH]2)c1` [Example 86, (S)—N-(4-(Chlorodifluoromethoxy)phenyl)-6-(3-hydroxypiperidin-1-yl)-5-(1H-pyrazol-5-yl)nicotinamide], the IC50 at ABL1 (64-515) [1] amounted to 4 nM; on ABL1 (64-515) [2] it was 1.5 nM.

In the case of `O=C(Nc1ccc(OC(F)(F)Cl)cc1)c1cnc(N2CCC[C@@H](O)C2)c(-c2ccn[nH]2)c1` [Example 87, (R)—N-(4-(Chlorodifluoromethoxy)phenyl)-6-(3-hydroxypiperidin-1-yl)-5-(1H-pyrazol-5-yl)nicotinamide], the IC50 at ABL1 (64-515) [1] came out at 3 nM; at ABL1 (64-515) [2], 1.3 nM.
